From patent publication US7074812B2, “Development of muscle mass in a mammal” (Nutraleutical Development Corporation, priority 2002, dated 2006)
Read-outs that look alike come from different tables or passages of the source.

How the values were obtained:
[1] = system: healthy male mice; conditions: 60 micrograms nicotine/ml drinking water
From the text: To study the effects of nicotine in the diet of mice in combination with exercise, 34 mice were divided into two equal groups. The diet of one group of mice was supplemented with nicotine added to the drinking water and the other group had plain water. Both groups received the same chow and water freely.
The experiment was a double-blind investigative study including a total of 34 healthy male mice that were approximately 9 weeks old, weighing approximately 35 grams. The mice were received one week prior to the start of the study to allow for a week of acclimation to the study site and the handlers. Because mice are active when it is dark and sleep when it is light, an automatic lighting system (12 hour dark/12 hour light) was set up for the duration of the study. The dark cycle was from 9 pm to 9 am and the light cycle from 9 am to 9 pm. The mice were subjected to a 3 week weighted exercise regimen on a treadmill wheel.
The 34 mice were divided in 2 groups of 17 mice each. Group 1 (nicotine treatment) received water laced with nicotine containing 60 micrograms nicotine/ml water and 10 mg saccharine tablet or pinch of a sugar substitute powder. The sugar substitute served to mask the bitter taste of nicotine in the water. Group 2 (placebo or control) followed the same weight exercise regimen as the nicotine treatment group. Their drinking water was plain water with the same amount of saccharine or sugar substitute as in Group 1. Each mouse had access to its water ad libitum daily during the study period, regardless of the group. Weekly water consumption was measured.
Mice in both groups were subjected to a weight/exercise regimen in the morning at the end of the dark cycle around 8:00 am. Weights were affixed to each animal at the beginning of the exercise. The weights were approximately 10% of body weight measured at Day -1 of the study, and adjusted based on body weight, measured weekly. The mice were exercised for 15 minutes per day or until exhaustion, 5 days a week for 3 weeks on a Mouse Forced Exercise Walking/Running Wheel System (Model 80800, Lafayette Instrument, North Lafayette, Ind. 47903). The largest part of the upper hind muscle of the mice was measured with a dial caliper every week. Two measurements on each leg were taken and the average was calculated.

[2] = system: males aged 30–59 years old
Protocol: In order to determine the effects of a nicotine supplement on human subjects, a double blind placebo controlled study was conducted. The study tested 32 males aged 30–59 years old. Each participant needed to have been weight-lifting and exercising on a consistent basis for at least one full year prior to the study. The study required each of the 32 males to remain consistent with their current exercise program (minimum of 3×'s per week), required not to add any new exercises to their current program, not add any new supplements to their diet during the six week study and to take the nicotine supplement 30 minutes prior to exercise. The nicotine supplement was 3 micrograms of nicotine in a standard 300 mg capsule containing polyethylene gycol (PEG) as a vehicle. The placebo capsule was identical in all aspects but contained no active (nicotine) ingredients.
The 32 males were subdivided into 4 groups, 2 placebo groups (8 took 1 capsule and 8 took 2 capsules with no active nicotine ingredients prior to exercise). In the other two groups (active), 8 subjects took 3 micrograms of nicotine and 8 took 6 micrograms of nicotine prior to exercise. The individuals were tested in the beginning and conclusion of the study in the following areas: (1) overall body fat/lean muscle ratio (ELG impedance test was used, which is 98% accurate compared to skinfold testing); (2) biceps; (3) upper leg muscle mass; and (4) 10 exercise repetition maximum, for both upper and lower body strength test (bench press and leg press). Participant workouts were logged by each individual in their own notebooks, to ensure consistency and compliance

[3] = 1 capsule (3 micrograms of nicotine), n = 8
[4] = 2 capsules (6 micrograms of nicotine), n = 8
[5] = Nicotine 1 or 2 capsules pooled, n = 16
[6] = individual subjects, six-week study

In the case of CN1CCCC1c1cccnc1 (stereo not shown) [Nicotine, nicotine], the “increase in leg diameter versus control group, overall” value ([1]; 3 weeks) was “significantly greater increase in leg diameter”, the “average increase of leg diameter, average of day 7, 14 and 21 compared with day 0” value ([1]; control 0.5 mm) was 1.7 mm and the “average increase of leg diameter compared to day 0” value ([1]; day 7, control 0.6 mm) was 1.6 mm. The “average increase of leg diameter compared to day 0” value ([1]; day 14, control 2.1 mm) was 2.8 mm, the “increase of leg diameter compared to day 0” value ([1]; day 21, control 1.1 mm decrease) was 0.7 mm and the “Upper-body Strength, Change Over Study (Post-Pre), Median (Range)” value (from here on “Upper-body Strength, Change Over Study”) ([2]; 1 capsule (3 micrograms of nicotine) prior to exercise, n = 8, bench press 10 repetition maximum) was 10.00 (5.00, 20.00). For the same compound, the “Bicep Circumference, Change Over Study (Post-Pre), Median (Range)” value (“Bicep Circumference, Change Over Study” for short) [2, 3] was 0.45 (−0.20, 2.00) cm, the “Body Fat %, Change Over Study (Post-Pre), Median (Range)” value (“Body Fat %, Change Over Study” for short) [2, 3] was −0.65 (−1.90, 0.70) % and the “Body Mass Index, Change Over Study (Post-Pre), Median (Range)” value (“Body Mass Index, Change Over Study” below) [2, 3] was −0.13 (−0.79, 0.45). The “Lean Mass %, Change Over Study (Post-Pre), Median (Range)” value (“Lean Mass %, Change Over Study” below) [2, 3] was 0.65 (−0.70, 1.90) %, the “Quadricep Circumference, Change Over Study (Post-Pre), Median (Range)” value [2, 3] was 0.00 (−2.00, 2.50) cm and the “Weight, Change Over Study (Post-Pre), Median (Range)” value (“Weight, Change Over Study (Post-Pre)” below) [2, 3] was −1.00 (−6.00, 3.00) lbs. For the same compound, the “Lower-body Strength, Change Over Study (Post-Pre), Median (Range)” value (“Lower-body Strength, Change Over Study” below) ([2]; 1 capsule (3 micrograms of nicotine), n = 8, leg press 10 repetition maximum) was 65.00 (15.00, 90.00), the “Upper-body Strength, Change Over Study” value ([2]; 2 capsules (6 micrograms of nicotine) prior to exercise, n = 8, bench press 10 repetition maximum) was 10.00 (5.00, 20.00) and the “Bicep Circumference, Change Over Study” value [2, 4] was 0.63 (−1.50, 1.70) cm. For the same compound, the “Body Fat %, Change Over Study” value [2, 4] was −1.05 (−5.90, 0.10) %, the “Body Mass Index, Change Over Study” value [2, 4] was −0.08 (−1.22, 0.94) and the “Lean Mass %, Change Over Study” value [2, 4] was 1.05 (−0.10, 5.90) %. For the same compound, the “Quadricep Circumference, Change Over Study (Post-Pre), Median (Range)” value [2, 4] was 0.00 (−2.00, 3.00) cm, the “Weight, Change Over Study (Post-Pre)” value [2, 4] was −0.50 (−8.00, 6.75) lbs and the “Lower-body Strength, Change Over Study” value ([2]; 2 capsules (6 micrograms of nicotine), n = 8, leg press 10 repetition maximum) was 80.00 (20.00, 320.00). The “Bicep Circumference, Change Over Study” value [2, 5] was 0.45 (−1.50, 2.00) cm, the “Body Fat %, Change Over Study” value [2, 5] was −0.95 (−5.90, 0.70) % and the “Body Mass Index, Change Over Study” value [2, 5] was −0.11 (−1.22, 0.94). The “Lean Mass %, Change Over Study” value [2, 5] was 0.95 (−0.70, 5.90) %, the “Lower-body Strength, Change Over Study” value [2, 5] was 70.00 (15.00, 320.00) and the “Quadricep Circumference, Change Over Study (Post-Pre), Median (Range)” value [2, 5] was 0.00 (−2.00, 3.00) cm. For the same compound, the “Upper-body Strength, Change Over Study” value [2, 5] was 10.00 (5.00, 20.00), the “Weight, Change Over Study (Post-Pre)” value [2, 5] was −0.75 (−8.00, 6.75) lbs and the “subjects who noted an increase in overall endurance, leg strength and a strong thermogenic effect” value ([2]; active (nicotine) group, six-week study) was 13 of the 16. For the same compound, the “individuals who made significant changes in either body, strength levels or muscle mass or in all three test areas” value ([2]; active (nicotine) group, placebo five of the sixteen) was “Fifteen of the sixteen”, the “change of overall body fat, one subject” value ([2]; individual subject, six-week study) was 32% and the “increase of leg strength, five subjects” value [2, 6] was “over 25%”. The “increase of leg strength, two of the five subjects” value [2, 6] was 40%.
